Series [1] relates to PBMCs. The series is described as follows: IFN gamma release in CD3/CD28 stimulated PBMC cells. It counts as cell-based. The following applies: Homo sapiens, read-out: IC50 Values for Inhibition of Cytokine Release PBMCs IFNγ. How it is done:
(§1) PBMCs from healthy subjects are separated from whole blood using a density gradient (Lymphoprep, Axis-Shield Healthcare). Cells are added to a 96 well plate pre-coated with a mixture of CD3/CD28 monoclonal antibodies (0.3 μg/mL eBioscience and 3 μg/mL BD Pharmingen respectively). Compound at the desired concentration is then added to the wells and the plate left for 3 days under normal tissue culture conditions. Supernatants are harvested and IL-2 and IFN gamma release determined by Sandwich ELISA (Duo-set, R&D System). The IC50 is determined from the dose response curve.

Series [2] has as its system PBMCs. The series is described as follows: IL-2 release in CD3/CD28 stimulated PBMC cells. The following applies: Homo sapiens, read-out: IC50 Values for Inhibition of Cytokine Release PBMCs IL-2. It counts as cell-based. How it is done:
as §1

The subject of series [3] is PBMCs. Description: LPS-induced IL-8 release in PBMC cells. The note with it: Homo sapiens, LPS-stimulated PBMCs, read-out: IC50 Values for Inhibition of Cytokine Release PBMCs IL-8. It counts as cell-based. An outline of the steps:
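Healthy-donor PBMCs isolated by density gradient were pretreated with compound for 2 h, then stimulated with 1 ng/mL LPS (E. coli 0111:B4) for 24 h at 37° C., 5% CO2. IL-8 and TNFα in supernatants measured by sandwich ELISA.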

Another series relates to Jurkat cells. Description: Cell cytotoxicity assay (Jurkat cell viability). It counts as cell-based, human. The note with it: 24 hours. How it is done: 1×10^5 Jurkat cells (immortalised human T lymphocytes) are added to the appropriate number of wells of a 96 well plate in 100 μL of media (RPMI supplemented with 10% foetal bovine serum). 1 μL of DMSO control (final concentration 1.0% v/v) or test compound (final concentration 20, 5 or 1 μg/mL) is added to the wells and incubated at 37° C., 5% CO2. After 24 hours, the plate is centrifuged at 1200 rpm for 3 minutes and the supernatant discarded. Cells are then resuspended in 150 μL (final concentration 7.5 μg/mL) of propidium iodide (PI) in PBS and incubated at 37° C., 5% CO2 for 15 minutes. After 15 minutes, cells are analysed by flow cytometry (BD accuri) using the FL3 window. The % viability is calculated as the % of cells that are PI negative in the test wells normalised to the DMSO control.

For the next series, the target named is T1, GSK3α (Homo sapiens, UniProt P49840).
T1 construct: purchased Invitrogen
T1 sequence (P49840 whole entry): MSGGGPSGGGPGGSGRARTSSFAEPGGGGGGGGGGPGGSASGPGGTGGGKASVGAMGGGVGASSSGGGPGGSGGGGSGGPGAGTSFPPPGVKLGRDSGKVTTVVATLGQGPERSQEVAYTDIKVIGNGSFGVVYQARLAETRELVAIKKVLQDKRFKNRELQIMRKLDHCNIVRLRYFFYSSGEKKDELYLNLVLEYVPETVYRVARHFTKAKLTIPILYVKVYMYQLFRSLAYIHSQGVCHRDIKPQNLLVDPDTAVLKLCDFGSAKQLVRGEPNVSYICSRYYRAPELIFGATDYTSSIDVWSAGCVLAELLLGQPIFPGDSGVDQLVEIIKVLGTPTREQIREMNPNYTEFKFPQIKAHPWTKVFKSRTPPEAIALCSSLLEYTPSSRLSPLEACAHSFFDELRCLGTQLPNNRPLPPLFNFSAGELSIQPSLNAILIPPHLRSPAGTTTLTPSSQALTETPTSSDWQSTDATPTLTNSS
Description: GSK3α enzyme inhibition (Method 2), FRET Z-LYTE. It counts as biochemical. How it is done:
(§2) The enzyme inhibitory activities of compounds disclosed herein are determined by FRET using synthetic peptides labelled with both donor and acceptor fluorophores (Z-LYTE, Invitrogen Ltd., Paisley, UK).
The inhibitory activities of compounds of the invention against the GSK 3α enzyme isoform (Invitrogen), are evaluated by determining the level of activation/phosphorylation of the target peptide. The GSK3-α protein (500 ng/mL, 2.5 μL) is mixed with the test compound (2.5 μL at either 4 μg/mL, 0.4 μg/mL, 0.04 μg/mL, or 0.004 μg/mL) for 2 hr at RT. The FRET peptide (8 μM, 2.5 μL), which is a phosphorylation target for GSK3α, and ATP (40 μM, 2.5 μL) are then added to the enzyme/compound mixture and the resulting mixture incubated for 1 hr. Development reagent (protease, 5 μL) is added for 1 hr prior to detection in a fluorescence microplate reader (Varioskan® Flash, ThermoFisher Scientific).
(§3) In all cases, the site-specific protease cleaves non-phosphorylated peptide only and eliminates the FRET signal. Phosphorylation levels of each reaction are calculated using the ratio of coumarin emission (donor) over fluorescein emission (acceptor), for which high ratios indicate high phosphorylation and low ratios indicate low phosphorylation levels.
This method follows the same steps as Method 1 above, but utilises a shorter period of mixing of the test compound (105 minutes instead of 2 hours) with the GSK3-α protein.

Another series has as its target T2, c-Src (Homo sapiens, UniProt P12931).
T2 construct: purchased Invitrogen
The series is described as follows: c-Src enzyme inhibition, FRET Z-LYTE. It is filed as biochemical. How it is done:
as §2
(§4) The inhibitory activities of compounds of the invention against c-Src and Syk enzymes (Invitrogen), are evaluated in a similar fashion to that described hereinabove. The relevant enzyme (3000 ng/mL or 2000 ng/mL respectively, 2.5 μL) is incubated with the test compound (either 4 μg/mL, 0.4 μg/mL, 0.04 μg/mL, or 0.004 μg/mL, 2.5 μL each) for 2 hr at RT. The FRET peptides (8 μM, 2.5 μL), and appropriate ATP solutions (2.5 μL, 800 μM for c-Src, and 60 μM ATP for Syk) are then added to the enzymes/compound mixtures and incubated for 1 hr. Development reagent (protease, 5 μL) is added for 1 hr prior to detection in a fluorescence microplate reader (Varioskan® Flash, ThermoFisher Scientific).
as §3

Series [4] addresses T3, Syk (Homo sapiens, UniProt P43405).
T3 construct: purchased Invitrogen
The series is described as follows: Syk enzyme inhibition, FRET Z-LYTE. It counts as biochemical. How it is done:
as §2, §4, §3

The target of series [5] is T4, p38 MAPKα (Homo sapiens, UniProt Q16539).
T4 construct: purchased Invitrogen
T4 sequence (Q16539 whole entry): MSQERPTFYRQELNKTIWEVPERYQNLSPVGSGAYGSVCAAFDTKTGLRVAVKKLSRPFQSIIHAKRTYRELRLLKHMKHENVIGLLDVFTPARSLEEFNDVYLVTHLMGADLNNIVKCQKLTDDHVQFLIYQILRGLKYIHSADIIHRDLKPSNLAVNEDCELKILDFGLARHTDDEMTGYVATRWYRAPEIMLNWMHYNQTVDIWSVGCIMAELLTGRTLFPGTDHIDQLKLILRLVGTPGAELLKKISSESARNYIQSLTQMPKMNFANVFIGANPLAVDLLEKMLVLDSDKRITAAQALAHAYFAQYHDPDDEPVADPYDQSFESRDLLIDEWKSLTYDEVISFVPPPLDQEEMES
The series is described as follows: KINOMEscan dissociation constant, p38 MAPKα. It is filed as binding. How it is done:
(§5) Kinase enzyme binding activities of compounds disclosed herein may be determined using a proprietary assay which measures active site-directed competition binding to an immobilized ligand (Fabian, M. A. et al., Nature Biotechnol., 2005, 23:329-336). These assays may be conducted by DiscoverX (formerly Ambit; San Diego, Calif.). The percentage inhibition produced by incubation with a test compound may be calculated relative to the non-inhibited control.

In series [6] the target is T4, p38 MAPKα. Description: p38 MAPKα enzyme inhibition (Method 2), FRET Z-LYTE. It counts as biochemical. How it is done: as §2
The inhibitory activities of test compounds against the p38 MAPKα isoform (MAPK14: Invitrogen), are evaluated indirectly by determining the level of activation/phosphorylation of the down-stream molecule, MAPKAP-K2. The p38 MAPKα protein (80 ng/mL, 2.5 μL) is mixed with the test compound (2.5 μL of either 4 μg/mL, 0.4 μg/mL, 0.04 μg/mL or 0.004 μg/mL) for 2 hr at RT. […] The mixture is incubated for 1 hr at RT. Development reagent (protease, 5 μL) is added for 1 hr prior to detection in a fluorescence microplate reader (Varioskan® Flash, ThermoFisher Scientific).
This method follows the same steps as Method 1 above, but utilises a higher concentration of the p38 MAPKα protein (2.5 μL of 200 ng/mL protein instead of 2.5 μL of 80 ng/mL protein) for mixing with the test compound.
as §3

The next series deals with T5, Lck (Homo sapiens, UniProt P06239).
T5 construct: purchased DiscoveRx Corporation (LeadHunter Discover Services, KINOMEscan)
T5 sequence (P06239 whole entry): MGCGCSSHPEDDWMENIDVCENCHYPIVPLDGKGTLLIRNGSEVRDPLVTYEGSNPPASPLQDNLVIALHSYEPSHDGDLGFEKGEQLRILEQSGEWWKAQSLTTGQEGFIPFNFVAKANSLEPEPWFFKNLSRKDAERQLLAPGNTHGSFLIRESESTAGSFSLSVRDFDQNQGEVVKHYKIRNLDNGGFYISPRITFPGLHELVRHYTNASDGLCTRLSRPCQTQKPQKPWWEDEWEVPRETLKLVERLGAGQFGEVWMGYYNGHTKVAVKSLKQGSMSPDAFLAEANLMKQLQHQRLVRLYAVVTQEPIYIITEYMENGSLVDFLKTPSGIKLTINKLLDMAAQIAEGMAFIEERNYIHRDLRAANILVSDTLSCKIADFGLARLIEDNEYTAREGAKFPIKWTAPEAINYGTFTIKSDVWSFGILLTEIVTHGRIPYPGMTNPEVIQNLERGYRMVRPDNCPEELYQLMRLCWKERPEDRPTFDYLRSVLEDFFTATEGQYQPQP
Description: KINOMEscan dissociation constant, Lck. It counts as binding. How it is done: as §5

Series [7] concerns the target T3, Syk. The series is described as follows: KINOMEscan dissociation constant, Syk. It counts as binding. How it is done: as §5
Series [8] concerns PBMCs. The series is described as follows: Cell mitosis assay in PBMCs. It is filed as cell-based, human. How it is done: Peripheral blood mononucleocytes (PBMCs) from healthy subjects are separated from whole blood (Quintiles, London, UK) using a density gradient (Histopaque®-1077, Sigma-Aldrich, Poole, UK). The PBMCs (3 million cells per sample) are subsequently treated with 2% PHA (phytohaemagglutinin, Sigma-Aldrich, Poole, UK) for 48 hr, followed by a 20 hr exposure to varying concentrations of test compounds. At 2 hr before collection, PBMCs are treated with demecolcine (0.1 μg/mL; Invitrogen, Paisley, UK) to arrest cells in metaphase. To observe mitotic cells, PBMCs are permeabilised and fixed by adding Intraprep (50 μL; Beckman Coulter, France), and stained with anti-phospho-histone 3 (0.26 ng/L; #9701; Cell Signalling, Danvers, Mass.) and propidium iodide (1 mg/mL; Sigma-Aldrich, Poole, UK) as previously described (Muehlbauer P. A. and Schuler M. J., Mutation Research, 2003, 537:117-130). Fluorescence is observed using an ATTUNE flow cytometer (Invitrogen, Paisley, UK), gating for lymphocytes.

T2 sequence (P12931 whole entry): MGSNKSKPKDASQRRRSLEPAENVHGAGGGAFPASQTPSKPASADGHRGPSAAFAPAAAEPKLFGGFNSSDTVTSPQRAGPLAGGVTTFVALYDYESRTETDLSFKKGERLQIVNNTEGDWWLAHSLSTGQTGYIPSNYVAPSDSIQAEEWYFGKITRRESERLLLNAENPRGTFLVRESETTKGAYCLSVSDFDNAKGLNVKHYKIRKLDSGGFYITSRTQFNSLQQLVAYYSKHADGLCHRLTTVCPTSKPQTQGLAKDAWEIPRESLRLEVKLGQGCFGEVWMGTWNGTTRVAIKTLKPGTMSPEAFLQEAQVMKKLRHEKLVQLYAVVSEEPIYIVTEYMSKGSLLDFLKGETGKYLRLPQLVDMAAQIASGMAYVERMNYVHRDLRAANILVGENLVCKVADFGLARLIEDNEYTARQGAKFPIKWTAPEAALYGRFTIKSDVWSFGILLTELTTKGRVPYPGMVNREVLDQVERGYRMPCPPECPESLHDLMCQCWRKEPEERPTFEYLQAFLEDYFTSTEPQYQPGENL

What is called IC50 is the midpoint of a concentration-inhibition curve. In general, Kd refers to the free concentration of one partner at which half of the binding sites on the other are occupied at equilibrium, for simple one-to-one binding. Read a low Kd as a tighter complex. What is called inhibition is the percentage by which the read-out fell short of the control. A higher inhibition goes with a strong effect. As for `COc1cc(Nc2ncc3cc(-c4cc(C(=O)Nc5cc(C(C)(C)C)cc(C(N)=O)c5OC)ccc4C)ccc3n2)cc(C(=O)NCCN2CCOCC2)c1` [Example 3, N-(5-(tert-Butyl)-3-carbamoyl-2-methoxyphenyl)-3-(2-((3-methoxy-5-((2-morpholinoethyl)-carbamoyl)phenyl)amino)quinazolin-6-yl)-4-methylbenzamide], the IC50 with PBMCs [1] is 0.0184 µM; with PBMCs [2], 0.0165 µM; in the series on PBMCs [3], 0.008 µM; on GSK3α, over 13.1 µM; against c-Src it was 0.018 µM; against Syk [4] it was 0.781 µM. In addition, the IC50 at p38 MAPKα [6] is 0.012 µM. Also, in the series on Jurkat cells, the “% Viability at 1 μg/mL” value was determined as 100.4%. Further, in the series with Jurkat cells, the “% Viability at 5 μg/mL” value was found to be 82.9%. Also, the “% Viability at 20 μg/mL” value in the series on Jurkat cells was 77.5%. In addition, the results for the Kd on p38 MAPKα [5], at Lck and at Syk [7] were 0.0039 µM, 0.0067 µM and 0.05 µM, respectively. In the series on PBMCs [8] (Homo sapiens, PBMC, PBMCs, 5 μg/mL), this molecule had an inhibition at 5 µg/mL of 66.3%. For the same molecule, the “impact on cell division (mitosis) in PBMCs, in words” value in the series on PBMCs [8] (assay (g), compared with Reference Compound A) is “markedly less active than the Reference Compound A”.
In the case of `COc1cc(Nc2ncc3cc(-c4cc(C(=O)Nc5cc(C(C)(C)C)cc(NS(C)(=O)=O)c5OC)ccc4C)ccc3n2)cc(C(=O)NCCN2CCOCC2)c1` [Example 5, N-(5-(tert-butyl)-2-methoxy-3-(methylsulfonamido)phenyl)-3-(2-((3-methoxy-5-((2-morpholinoethyl)carbamoyl)phenyl)amino)quinazolin-6-yl)-4-methylbenzamide], the IC50 in the series on PBMCs [1] was 0.0304 µM; in the series with PBMCs [2], 0.0387 µM; in the series with PBMCs [3], 0.0103 µM; against GSK3α it was over 12.6 µM. Also, the “% Viability at 1 μg/mL” value with Jurkat cells is on record as 116.5%. Also, in the series with Jurkat cells, the “% Viability at 5 μg/mL” value turned out to be 48.8%. Also, the “% Viability at 20 μg/mL” value in the series on Jurkat cells is listed as 44.6%.
For the molecule `COc1c(NC(=O)c2ccc(C)c(-c3ccc4nc(Nc5cc(OS(C)(=O)=O)cc(C(=O)NCCN6CCOCC6)c5)ncc4c3)c2)cc(C(C)(C)C)cc1NS(C)(=O)=O` [Example 10, 3-((6-(5-((5-(tert-Butyl)-2-methoxy-3-(methylsulfonamido)phenyl)carbamoyl)-2-methylphenyl)-quinazolin-2-yl)amino)-5-((2-morpholinoethyl)carbamoyl)phenyl methanesulfonate], the IC50 with PBMCs [1] is 0.0131 µM; in the series on PBMCs [3], 0.0035 µM; against c-Src it was 0.02 µM; against Syk [4] it was over 1.16 µM; on p38 MAPKα [6], 0.024 µM. For the same molecule, the “% Viability at 1 μg/mL” value in the series with Jurkat cells stood at 91.5%. Also, the “% Viability at 5 μg/mL” value with Jurkat cells worked out at 82.5%. The “% Viability at 20 μg/mL” value in the series with Jurkat cells is given as 77.8%.
Turning to `COc1cc(Nc2ncc3cc(-c4cc(C(=O)Nc5cc(C(C)(C)C)cc(NS(C)(=O)=O)c5OC)ccc4C)ccc3n2)ccc1C(=O)N1CCS(=O)(=O)CC1` [Example 12, N-(5-(tert-Butyl)-2-methoxy-3-(methylsulfonamido)phenyl)-3-(2-((4-(1,1-dioxidothiomorpholine-4-carbonyl)-3-methoxyphenyl)amino)quinazolin-6-yl)-4-methylbenzamide], the IC50 amounted to 0.0126 µM in the series on PBMCs [1]; 0.0023 µM with PBMCs [3]; 0.004 µM at c-Src; 0.19 µM at Syk [4]; 0.008 µM against p38 MAPKα [6]. The “% Viability at 1 μg/mL” value with Jurkat cells is listed as 86.4%. Further, the “% Viability at 5 μg/mL” value with Jurkat cells worked out at 79.3%. The “% Viability at 20 μg/mL” value in the series on Jurkat cells was 81.0%.

These data come from patent publication US20170209445A1, “KINASE INHIBITORS” (Respivert Limited, priority 2014, published 2017).
